This passage reports viability, T/C and IC50 results from PubChem BioAssay AID2060603 (Molecular Pharmacology Branch, DTP, NCI, 2025).

“And” between values parts separate entries of the source, which are not always exact repeats. Equal entries are not always repeated.

This assay deals with 422866-222-R5-J1-PDC spheroid viability. Put plainly: Anticancer human tumor 422866-222-R5-J1-PDC patient-derived pancreatic adenocarcinoma cell line growth inhibition [CLK]. To be noted: spheroids with HUVEC and MSC; for viability, T/C: stronger effect = lower value. The text has this:
A high-throughput screen of multi-cell type tumor spheroids was designed to identify active combinations of […] and targeted small molecules. Complex spheroids include a stromal component modeled by human endothelial cells (HUVEC) and fibroblasts modeled by human mesenchymal stem cells (MSCs). The concentration ranges selected for each drug and investigational agent were based upon clinically achievable concentrations if the clinical Cmax of the agent was known.
Compounds. The drugs and investigational agents: cirtuvivint (SM08502; NSC835563), CC-671 (NSC850746), vemurafenib (NSC761431), tapotoclax (NSC804041), sotorasib (NSC818433), adagrasib (NSC831453), MRTX-1133 (NSC836407), BAY2416964 (NSC825713), copanlisib (NSC816437), inavolisib (NSC800729), abemaciclib (NSC768073), osimertinib (NSC779217), entinostat (NSC756642), eltanexor (KPT-8602, NSC794443), venetoclax (NSC766270), ceralasertib (NSC777638), bortezomib (NSC756655), olaparib (NSC753686), talazoparib (NSC767125), alisertib (NSC759677), peposertib (NSC802822), gemcitabine (NSC613327), 5-fluorouracil (NSC19893), SN-38 (NSC673596), oxaliplatin (NSC266046), paclitaxel (NSC125973), and doxorubicin (NSC123127), were obtained from the National Cancer Institute (NCI) Developmental Therapeutics Program Chemical Repository. The FDA-approved anticancer drug set is available from the Developmental Therapeutics Program at https://dtp.cancer.gov/organization/dscb/obtaining/available plates.htm. […] The stock solutions were prepared in dimethyl sulfoxide (DMSO, Sigma-Aldrich, St. Louis, MO, cat. D2650), except for the platinum complexes which were prepared in saline (Quality Biological, Gaithersburg, MD, cat. 114-055-101), at 800-fold the tested concentration and stored at -70 degrees C prior to their use. All drugs and investigational agents were tested over a range starting from a high concentration at or near the clinical Cmax and decreasing in half-log increments. If the clinical Cmax for an agent had not been determined, the highest concentration tested was 10 microM.
Cell Culture. All cells were maintained in an incubator at 37 degrees C and 5% CO2 with 95% humidity. The PDC lines were cultured according to standard operating procedures established by the NCI PDMR. Briefly, all PDCs were thawed and cultured in Matrigel-coated flasks prepared with a working solution of 1X Ham's F-12 nutrient mix, without supplementation (Invitrogen, Waltham, MA, cat. 11765054), 100 U/mL penicillin-streptomycin (Invitrogen, cat. 15140122), and 2.5% Matrigel (Corning Inc., Corning, NY, cat. 354248) for the first three passages. The 947758-054-R-J2-PDC line was cultured in 6B/Colon 1A media, which includes advanced DMEM/F-12 (Thermo Fisher Scientific, cat. 12634028), 10 mM HEPES (Thermo Fisher Scientific, cat. 15630080), 1X GlutaMAX supplement (Thermo Fisher Scientific, cat. 35050061), 0.1 mg/mL primocin (InvivoGen, cat. ant-pm-2), 10% defined fetal bovine serum, heat inactivated (HyClone Laboratories Inc., cat. SH30070.03HI), 1.25 mM N-Acetyl-L-cysteine (Sigma-Aldrich, cat. A9165), 10 mM nicotinamide (Sigma-Aldrich, cat. N0636), 1X B-27 supplement (Thermo Fisher Scientific, cat. 17504044), 1X N-2 supplement (Thermo Fisher Scientific, cat. 17502048), and 10 microM Y-27632 dihydrochloride (Tocris Bioscience, cat. 1254). The 876862-298-R-J1-PDC was cultured in 6E media, which includes all 6B/Colon 1A media components plus 50% L-WRN conditioned media (ATCC, cat. CRL-3276), 50 ng/mL recombinant human EGF recombinant protein (hEGF; Thermo Fisher Scientific, cat. PHG0311), 10 ng/mL recombinant human fibroblast growth factor 10 (hGFG-10; PeproTech, cat. 100-26), 1 ng/mL recombinant human fibroblast growth factor 2 (hFGF-2; PeproTech, cat. 100-18B), and 1 µM prostaglandin E2 (PGE2; Tocris, cat. 2296). The 227483-062-R1-J1-PDC line was cultured in Panc media, containing all 6E components except hFGF-2, with the addition of 500 nM SB-431542 (Selleckchem, cat. S1067) and 10 nM gastrin (Tocris, cat. 3006). […]
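Also: spheroids exposed to agents for seven days before readout.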

For the compound `CC(=O)O[C@H]1C(=O)[C@@]2(C)[C@H]([C@H](OC(=O)c3ccccc3)[C@]3(O)C[C@H](OC(=O)[C@H](O)[C@@H](NC(=O)c4ccccc4)c4ccccc4)C(C)=C1C3(C)C)[C@]1(OC(C)=O)CO[C@@H]1C[C@@H]2O`, the viability, T/C was 68% and 69.8% (compound 0.0316 µM); 69.3% and 72.6% (compound 0.1 µM); 63.8% and 66.3% (compound 0.316 µM); 68.3% and 75.5% (compound 1 µM); 72.2% and 76% (compound 3.16 µM); 85.7% and 81.6% (compound 10 µM). In addition, the half-inhibitory concentration (IC50) (curve of compound) is greater than 10 µM.
As to `CC1(C)CCC(CN2CCN(c3ccc(C(=O)NS(=O)(=O)c4ccc(NCC5CCOCC5)c([N+](=O)[O-])c4)c(Oc4cnc5[nH]ccc5c4)c3)CC2)=C(c2ccc(Cl)cc2)C1`, the viability, T/C is 89.7% and 94.5% (compound 0.0316 µM); 95.6% and 97.1% (compound 0.1 µM); 103% and 77.2% (compound 0.316 µM); 105% and 92.1% (compound 1 µM); 99.1% and 120% (compound 3.16 µM); 69.8% and 69% (compound 10 µM). Moreover, the half-inhibitory concentration (IC50) (curve of compound) is greater than 10 µM.
In the case of `CC1COCCN1c1cc(C2(S(C)(=N)=O)CC2)nc(-c2ccnc3[nH]ccc23)n1` (stereo not given), the viability, T/C (compound 0.0316 µM) was 94.6% and 88.6%; the viability, T/C (compound 0.1 µM) was 92.4% and 94.7%; the viability, T/C (compound 0.316 µM) is 97.3% and 95.7%; the viability, T/C (compound 1 µM) is 94.2% and 94.3%; the viability, T/C (compound 3.16 µM) is 66.9% and 58.5%; the viability, T/C (compound 10 µM) was 54.5% and 47.8%. Besides, where the note is “curve of compound”, the IC50 was > 10 µM and 7.89 µM.
Turning to `CN1CCN(c2cc(C(=O)Nc3cc4cc(-c5cnn(C)c5)ccc4cn3)ccn2)CC1`, the viability, T/C was 25.8% [middle of 12 runs] (compound 1 µM), 11% [middle of 12 runs] (compound 3.16 µM) and 2.14% [middle of 12 runs] (compound 10 µM). Also, under “compound alone, run of 08/14/2023”, the IC50 was 650 nM [middle of 12 runs].
Regarding `COc1ccc([C@@H](O)c2cc(-c3ncnc4cc(N5CCOCC5)ccc34)c(F)cc2Cl)nn1`, the viability, T/C reads like this: (compound 0.0316 µM) 88.1% and 94.1%; (compound 0.1 µM) 105% and 99%; (compound 0.316 µM) 80.7% and 76.8%; (compound 1 µM) 66.4% and 61.3%; (compound 3.16 µM) 47.2% and 38.6%; (compound 10 µM) 35.5% and 29.1%. In addition, the IC50 (curve of compound) was 2.5 µM and 1.71 µM.
With `COc1cccc2c1C(=O)c1c(O)c3c(c(O)c1C2=O)CC(O)(C(=O)CO)CC3OC1CC(N)C(O)C(C)O1` (stereo not given), the viability, T/C (compound 0.0316 µM) is 57.2% and 67.1%; the viability, T/C (compound 0.1 µM) was 65.7% and 52.3%; the viability, T/C (compound 0.316 µM) is 44.2% and 30.3%; the viability, T/C (compound 1 µM) is 32.1% and 27%; the viability, T/C (compound 3.16 µM) is 28.3% and 26.7%; the viability, T/C (compound 10 µM) was 30.9% and 26%. Besides, the 50% inhibitory concentration (IC50) (curve of compound) is 0.215 µM and 0.113 µM.
`Nc1ccn(C2OC(CO)C(O)C2(F)F)c(=O)n1` (stereo not given): the viability, T/C by setting is: (compound 0.0316 µM) 73.9% and 72.8%; (compound 0.1 µM) 60.1% and 44.8%; (compound 0.316 µM) 44.6% and 38%; (compound 1 µM) 41.9% and 46.5%; (compound 3.16 µM) 41.6% and 39.7%; (compound 10 µM) 36.3% and 40.9%. Besides, where the note is “curve of compound”, the IC50 is 0.221 µM and 0.0795 µM.
`O=C(c1cc(Cc2n[nH]c(=O)c3ccccc23)ccc1F)N1CCN(C(=O)C2CC2)CC1`: the viability, T/C was 99% and 103% (compound 0.0316 µM); 94% and 98.7% (compound 0.1 µM); 102% and 87.7% (compound 0.316 µM); 102% and 105% (compound 1 µM); 80.1% and 94% (compound 3.16 µM); 81.2% and 78.8% (compound 10 µM). Also, under “curve of compound”, the half-inhibitory concentration (IC50) is greater than 10 µM.
On to `O=c1[nH]cc(F)c(=O)[nH]1`, for which the viability, T/C was 101% and 102% (compound 0.0316 µM); 95.5% and 95.8% (compound 0.1 µM); 91.1% and 85.6% (compound 0.316 µM); 98% and 85.2% (compound 1 µM); 65.5% and 77.1% (compound 3.16 µM); 90.2% and 74.7% (compound 10 µM). For the same compound, the IC50 (curve of compound) is greater than 10 µM.

One may read the viability, T/C as the ratio of treated to control. As a reminder, the IC50 is the concentration needed to halve the response being measured.
